Measured values taken from patent US10544143B2, “4-azaindole compounds” (BRISTOL-MYERS SQUIBB COMPANY, priority 2017, dated 2020).

Tests used:
[1] = molecular target: human TLR7 (Homo sapiens (Human), UniProt Q9NYK1); experiment: TLR7 inhibition reporter assay (HEK-Blue SEAP); type: cell-based; details: HEK-Blue cells overexpressing human TLR7, gardiquimod 7.5 μM stimulation, SEAP reporter
[2] = molecular target: human TLR8 (Homo sapiens (Human), UniProt Q9NR97); experiment: TLR8 inhibition reporter assay (HEK-Blue SEAP); details: read-out: TLR8 IC50; HEK-Blue cells overexpressing human TLR8, R848 15.9 μM stimulation, SEAP reporter;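 further: SEAP driven by IFN-β minimal promoter carrying NF-κB and AP-1 sites, compounds dosed 0.05 nM to 50 µM for 22 h, inhibition scaled between agonist-plus-DMSO and reference-inhibitor wells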
[3] = molecular target: human TLR9 (Homo sapiens (Human), UniProt Q9NR96); experiment: TLR9 inhibition reporter assay (HEK-Blue SEAP); details: read-out: TLR9 IC50; HEK-Blue cells overexpressing human TLR9, ODN2006 5 nM stimulation, SEAP reporter;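 further: SEAP driven by an IFN-β minimal promoter with NF-κB and AP-1 sites, read after 22 h, compounds dosed 0.05 nM–50 µM, inhibition scaled between agonist plus DMSO and reference-inhibitor wells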
human TLR9, sequence (Q9NR96 26-1032): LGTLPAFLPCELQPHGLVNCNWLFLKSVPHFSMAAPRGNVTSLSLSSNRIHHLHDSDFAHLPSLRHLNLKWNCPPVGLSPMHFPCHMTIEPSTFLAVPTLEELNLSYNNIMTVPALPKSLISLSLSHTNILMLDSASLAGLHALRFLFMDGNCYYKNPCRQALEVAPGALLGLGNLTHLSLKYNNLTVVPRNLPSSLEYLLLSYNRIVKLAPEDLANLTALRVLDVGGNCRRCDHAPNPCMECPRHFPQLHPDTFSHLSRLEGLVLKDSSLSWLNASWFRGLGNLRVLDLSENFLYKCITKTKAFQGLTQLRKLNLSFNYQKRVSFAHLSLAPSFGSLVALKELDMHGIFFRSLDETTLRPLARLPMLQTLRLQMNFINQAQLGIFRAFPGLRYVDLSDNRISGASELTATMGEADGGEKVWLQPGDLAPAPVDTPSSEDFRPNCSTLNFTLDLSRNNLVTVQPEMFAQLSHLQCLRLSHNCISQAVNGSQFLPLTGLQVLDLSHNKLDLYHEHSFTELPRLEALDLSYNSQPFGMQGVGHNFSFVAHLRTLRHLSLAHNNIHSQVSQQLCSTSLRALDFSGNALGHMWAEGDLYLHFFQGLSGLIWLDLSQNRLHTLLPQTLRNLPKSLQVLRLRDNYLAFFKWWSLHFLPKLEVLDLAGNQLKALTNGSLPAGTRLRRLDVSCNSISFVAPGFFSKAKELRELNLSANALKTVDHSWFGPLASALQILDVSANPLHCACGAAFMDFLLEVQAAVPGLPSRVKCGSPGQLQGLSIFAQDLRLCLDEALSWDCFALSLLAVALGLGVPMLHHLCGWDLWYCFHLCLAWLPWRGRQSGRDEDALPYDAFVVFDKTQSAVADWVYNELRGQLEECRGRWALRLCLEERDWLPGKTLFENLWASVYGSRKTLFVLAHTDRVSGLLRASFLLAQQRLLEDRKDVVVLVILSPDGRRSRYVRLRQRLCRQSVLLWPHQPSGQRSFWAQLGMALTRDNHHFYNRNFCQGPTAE

human TLR7, sequence (Q9NYK1 27-1049): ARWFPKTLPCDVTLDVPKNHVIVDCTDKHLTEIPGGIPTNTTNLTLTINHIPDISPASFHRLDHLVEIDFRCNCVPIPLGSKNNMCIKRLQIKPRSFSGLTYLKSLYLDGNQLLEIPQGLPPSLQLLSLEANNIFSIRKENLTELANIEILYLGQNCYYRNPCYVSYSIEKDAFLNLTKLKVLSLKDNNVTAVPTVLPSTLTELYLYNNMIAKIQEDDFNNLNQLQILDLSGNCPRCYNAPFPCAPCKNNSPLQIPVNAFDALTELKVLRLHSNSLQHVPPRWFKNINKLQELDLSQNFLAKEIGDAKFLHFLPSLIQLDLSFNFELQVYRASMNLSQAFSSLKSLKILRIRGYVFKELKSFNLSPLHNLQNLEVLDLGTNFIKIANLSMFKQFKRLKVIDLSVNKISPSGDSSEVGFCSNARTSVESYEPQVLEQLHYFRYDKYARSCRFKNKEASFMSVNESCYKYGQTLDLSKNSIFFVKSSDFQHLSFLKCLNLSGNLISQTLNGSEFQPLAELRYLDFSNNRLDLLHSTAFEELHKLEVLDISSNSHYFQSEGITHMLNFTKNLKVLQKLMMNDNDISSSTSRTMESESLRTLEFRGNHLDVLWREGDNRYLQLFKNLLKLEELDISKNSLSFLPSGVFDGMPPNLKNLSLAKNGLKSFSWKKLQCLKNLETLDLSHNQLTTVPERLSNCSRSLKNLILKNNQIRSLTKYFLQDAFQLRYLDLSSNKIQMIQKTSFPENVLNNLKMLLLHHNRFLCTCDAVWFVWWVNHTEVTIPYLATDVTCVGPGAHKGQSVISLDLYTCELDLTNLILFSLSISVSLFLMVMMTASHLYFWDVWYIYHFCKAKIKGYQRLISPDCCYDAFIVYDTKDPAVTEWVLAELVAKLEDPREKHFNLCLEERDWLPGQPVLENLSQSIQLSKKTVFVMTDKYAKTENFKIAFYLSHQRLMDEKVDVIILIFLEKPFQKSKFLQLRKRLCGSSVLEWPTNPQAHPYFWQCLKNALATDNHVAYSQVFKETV
human TLR8, sequence (Q9NR97 27-1041): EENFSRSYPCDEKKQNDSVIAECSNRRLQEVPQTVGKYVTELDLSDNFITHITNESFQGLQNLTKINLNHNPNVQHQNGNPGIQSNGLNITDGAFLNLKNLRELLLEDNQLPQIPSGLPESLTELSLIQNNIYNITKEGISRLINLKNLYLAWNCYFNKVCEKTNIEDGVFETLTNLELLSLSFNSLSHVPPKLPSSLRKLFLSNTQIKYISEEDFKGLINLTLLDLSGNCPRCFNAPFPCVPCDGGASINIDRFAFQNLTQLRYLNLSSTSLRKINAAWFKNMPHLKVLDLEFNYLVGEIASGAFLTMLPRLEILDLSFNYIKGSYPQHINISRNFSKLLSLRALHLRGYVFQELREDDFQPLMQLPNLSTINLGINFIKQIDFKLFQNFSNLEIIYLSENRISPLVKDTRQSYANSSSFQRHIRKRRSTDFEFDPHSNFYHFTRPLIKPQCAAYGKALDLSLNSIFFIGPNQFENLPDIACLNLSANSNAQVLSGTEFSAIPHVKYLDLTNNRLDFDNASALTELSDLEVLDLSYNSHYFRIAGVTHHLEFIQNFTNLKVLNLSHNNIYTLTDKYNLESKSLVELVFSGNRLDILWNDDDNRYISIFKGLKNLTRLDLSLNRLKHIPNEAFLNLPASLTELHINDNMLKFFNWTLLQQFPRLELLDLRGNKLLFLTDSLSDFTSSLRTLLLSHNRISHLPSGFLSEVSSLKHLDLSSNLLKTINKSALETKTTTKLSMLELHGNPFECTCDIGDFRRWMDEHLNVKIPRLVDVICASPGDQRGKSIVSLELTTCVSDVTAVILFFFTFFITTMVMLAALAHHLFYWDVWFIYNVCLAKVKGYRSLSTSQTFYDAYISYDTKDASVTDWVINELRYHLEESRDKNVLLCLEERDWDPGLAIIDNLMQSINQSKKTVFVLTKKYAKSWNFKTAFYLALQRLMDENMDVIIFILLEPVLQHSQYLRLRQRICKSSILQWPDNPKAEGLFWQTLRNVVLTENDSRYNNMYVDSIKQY

| Compound | IC50 [1] [nM] | IC50 [2] [nM] | IC50 [3] [nM] |
| --- | --- | --- | --- |
| CC(C)c1c(-c2cn(C)c3ncccc23)[nH]c2ccc(N3CCC(NCCS(C)(=O)=O)CC3)nc12 [Example 53] | 0.62 | 0.23 | 1990 |
| CC(C)c1c(-c2cn(C)c3ncccc23)[nH]c2ccc(N3CCC(N(CC(=O)N(C)C)CC(=O)N(C)C)CC3)nc12 [Example 54] | 2.9 | 2.8 | 10400 |
| Cc1c(-c2[nH]c3ccc(N4CCC(N(C)C5CCOCC5)CC4)nc3c2C(C)C)cn2ncnc2c1C [Example 55] | 2.1 | 0.39 | 3340 |
| Cc1c(-c2[nH]c3ccc(N4CCC(NCc5csnn5)CC4)nc3c2C(C)C)cn2ncnc2c1C [Example 56] | 2 | 1.1 | 6340 |
| Cc1c(-c2[nH]c3ccc(N4CCC(NC5CCC5)CC4)nc3c2C(C)C)cn2ncnc2c1C [Example 57] | 7.4 | 1.3 | 5070 |
| Cc1c(-c2[nH]c3ccc(N4CCC(N(C)CC5CC5)CC4)nc3c2C(C)C)cn2ncnc2c1C [Example 58] | 1.3 | 0.72 | 1970 |
| Cc1c(-c2[nH]c3ccc(N4CCC(N(C)C5CCC5)CC4)nc3c2C(C)C)cn2ncnc2c1C [Example 59] | 1.3 | 1.1 | 2380 |
| Cc1c(-c2[nH]c3ccc(N4CCC(N(C)Cc5ncccn5)CC4)nc3c2C(C)C)cn2ncnc2c1C [Example 60] | 5.6 | 5.9 | 20200 |
| COc1ncnc(OC)c1CN(C)C1CCN(c2ccc3[nH]c(-c4cn5ncnc5c(C)c4C)c(C(C)C)c3n2)CC1 [Example 61] | 4.4 | 1.8 | 2410 |
| Cc1c(-c2[nH]c3ccc(N4CCC(N(C)Cc5ccnn5C)CC4)nc3c2C(C)C)cn2ncnc2c1C [Example 62] | 3.8 | 1.5 | 11500 |
| Cc1c(-c2[nH]c3ccc(N4CCC(N(C)Cc5ncnn5C)CC4)nc3c2C(C)C)cn2ncnc2c1C [Example 63] | 7.4 | 4 | 42400 |
| Cc1ncc(CN(C)C2CCN(c3ccc4[nH]c(-c5cn6ncnc6c(C)c5C)c(C(C)C)c4n3)CC2)cn1 [Example 64] | 3.8 | 1.6 | 5080 |
| Cc1c(-c2[nH]c3ccc(N4CCC(N(C)C5COC5)CC4)nc3c2C(C)C)cn2ncnc2c1C [Example 65] | 1.9 | 1.3 | 25100 |
| CCN(C)C1CCN(c2ccc3[nH]c(-c4cn5ncnc5c(C)c4C)c(C(C)C)c3n2)CC1 [Example 66] | 1.4 | 0.98 | 3870 |
| COc1ncc(CN(C)C2CCN(c3ccc4[nH]c(-c5cn6ncnc6c(C)c5C)c(C(C)C)c4n3)CC2)cn1 [Example 67] | 0.98 | 0.42 | 963 |
| Cc1c(-c2[nH]c3ccc(N4CCC(N(C)Cc5cn(C)nn5)CC4)nc3c2C(C)C)cn2ncnc2c1C [Example 68] | 1.4 | 0.79 | 6300 |
| COc1ncnc(OC)c1CNC1CCN(c2ccc3[nH]c(-c4cn5ncnc5c(C)c4C)c(C(C)C)c3n2)CC1 [Example 69] | 1310 | 1310 | 25800 |
| CCN(CC)C1CCN(c2ccc3[nH]c(-c4cn5ncnc5c(C)c4C)c(C(C)C)c3n2)CC1 [Example 70] | 2.3 | 1.2 | 2970 |
| COc1ncnc(OC)c1CN(Cc1c(OC)ncnc1OC)C1CCN(c2ccc3[nH]c(-c4cn5ncnc5c(C)c4C)c(C(C)C)c3n2)CC1 [Example 71] | 99 | 31 | 3900 |
| COc1ncc(CNC2CCN(c3ccc4[nH]c(-c5cn6ncnc6c(C)c5C)c(C(C)C)c4n3)CC2)cn1 [Example 72] | 2.9 | 0.9 | 3420 |
| Cc1c(-c2[nH]c3ccc(N4CCC(N(Cc5cn(C)nn5)Cc5cn(C)nn5)CC4)nc3c2C(C)C)cn2ncnc2c1C [Example 73] | 29 | 5.7 | 24900 |
